From patent US4385062A, “1-[(-2-Mercaptocycloalkyl)carbonyl]-L-proline derivatives, the process for their manufacture, the intermediates for their synthesis and their use as anti-hypertensive agents” (Gruppo Lepetit S.p.A., priority 1980, dated 1983) come the findings set out here.

In assay [1] the target is T1, angiotensin converting enzyme (Rattus norvegicus, UniProt P47820).
T1 construct: rat plasma containing angiotensinogen, renin and converting enzyme in physiological amounts; from tissue; host or cells: rat plasma
T1 sequence (P47820 36-1238 limits assumed): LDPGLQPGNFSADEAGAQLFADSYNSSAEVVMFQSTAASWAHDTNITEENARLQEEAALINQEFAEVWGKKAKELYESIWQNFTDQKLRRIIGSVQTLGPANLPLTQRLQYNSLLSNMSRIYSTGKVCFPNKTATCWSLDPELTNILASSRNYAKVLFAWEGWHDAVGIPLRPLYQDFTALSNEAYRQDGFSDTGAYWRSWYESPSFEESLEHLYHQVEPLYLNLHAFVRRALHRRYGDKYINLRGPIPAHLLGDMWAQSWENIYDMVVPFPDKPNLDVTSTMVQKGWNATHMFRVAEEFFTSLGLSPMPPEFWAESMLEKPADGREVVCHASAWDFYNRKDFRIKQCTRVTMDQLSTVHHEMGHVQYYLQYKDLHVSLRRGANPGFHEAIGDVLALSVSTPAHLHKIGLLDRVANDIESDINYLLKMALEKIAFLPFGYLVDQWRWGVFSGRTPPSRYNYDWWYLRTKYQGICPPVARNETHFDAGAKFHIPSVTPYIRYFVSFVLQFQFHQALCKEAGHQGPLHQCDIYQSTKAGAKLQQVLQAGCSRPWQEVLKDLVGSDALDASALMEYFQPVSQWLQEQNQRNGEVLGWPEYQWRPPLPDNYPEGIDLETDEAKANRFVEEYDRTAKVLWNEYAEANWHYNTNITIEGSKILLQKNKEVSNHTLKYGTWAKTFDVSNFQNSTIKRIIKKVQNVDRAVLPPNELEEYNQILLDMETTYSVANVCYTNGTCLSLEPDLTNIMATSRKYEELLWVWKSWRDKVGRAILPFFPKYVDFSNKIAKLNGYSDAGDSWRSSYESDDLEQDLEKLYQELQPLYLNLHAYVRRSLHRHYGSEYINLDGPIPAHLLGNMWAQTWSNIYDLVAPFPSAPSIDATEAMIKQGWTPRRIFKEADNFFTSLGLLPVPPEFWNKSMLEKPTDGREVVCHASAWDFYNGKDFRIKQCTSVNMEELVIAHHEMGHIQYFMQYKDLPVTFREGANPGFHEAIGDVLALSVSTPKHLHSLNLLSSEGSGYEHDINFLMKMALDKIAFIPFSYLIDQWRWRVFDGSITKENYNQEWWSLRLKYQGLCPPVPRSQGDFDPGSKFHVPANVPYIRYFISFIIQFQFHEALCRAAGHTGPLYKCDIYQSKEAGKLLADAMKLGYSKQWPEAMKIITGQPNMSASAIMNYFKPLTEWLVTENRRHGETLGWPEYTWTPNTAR
Description: in vitro radioimmunoassay of angiotensin-II generation in rat plasma (converting enzyme inhibition). As to conditions: 37° C., 30 minutes, angiotensin-II antibody trapping, read-out: IC50 (concentration at which a 50% inhibition of formation of angiotensin-II with respect to the control occurs) (converted). It is filed as biochemical.
Description: The in vitro activity was determined by a radioimmuno-assay carried out using the methodology illustrated by K. Poulsen in J. Lab. […] More particularly, the in vitro activity was quantitatively evaluated by following the procedure described below:
50 μl of rat plasma containing angiotensinogen, renin and converting enzyme in physiological amounts, but deprived of endogenous angiotensin-I and angiotensin-II, and 10 μl of angiotensin-II antibody in dilution (1:120) were incubated in a tube at 37° C. for 30 minutes.
During this enzymatic incubation in the absence of converting enzyme inhibitors, angiotensin-II which forms is then transformed into angiotensin-II by the action of converting enzyme and the angiotensin-II antibody which is present in the incubate, then captures and traps it, thus preserving angiotensin-II from the degrading action of plasmatic angiotensinases. Incubation was terminated by placing the tube at 0° C. and the amount of angiotensin-II formed and captured by the antibody was measured by radioimmunoassay (see K. Poulsen and J. Jorgensen J. Clin. Endocrinol. Metab. 39, 816-825 (1974). […]
As said above, the amount of captured angiotensin-II, was determined by a radioimmunological assay. […] After centrifugation at 3000×g for 30 minutes the supernatant which contains the antibody-bound angiotensin-II, was decanted in counting tubes and each sample was then counted.
For calculation of generated angiotensin-II from the amount of antibody-bound labeled angiotensin-II, an angiotensin-II standard curve was constructed using 50 μg of standard angiotensin-II (containing zero to 7.5 pg of angiotensin-II) and 10 μl of angiotensin-II antibody in dilution (1:120). […] By plotting the amounts of antibody-bound labeled angiotensin-II versus the known amounts of angiotensin-II initially present, a standard curve can be constructed, which allow a direct correlation between the amount of antibody-bound labeled angiotensin-II determined in each test and the amount of generated angiotensin-II.

For assay [2], the target named is T2, angiotensin converting enzyme (Rattus norvegicus, UniProt P47820).
T2 construct: confirmed also in vivo by means of an experiment performed on normotensive rats; from tissue; host or cells: anesthetized normotensive rats (whole animal)
T2 sequence (P47820 36-1313): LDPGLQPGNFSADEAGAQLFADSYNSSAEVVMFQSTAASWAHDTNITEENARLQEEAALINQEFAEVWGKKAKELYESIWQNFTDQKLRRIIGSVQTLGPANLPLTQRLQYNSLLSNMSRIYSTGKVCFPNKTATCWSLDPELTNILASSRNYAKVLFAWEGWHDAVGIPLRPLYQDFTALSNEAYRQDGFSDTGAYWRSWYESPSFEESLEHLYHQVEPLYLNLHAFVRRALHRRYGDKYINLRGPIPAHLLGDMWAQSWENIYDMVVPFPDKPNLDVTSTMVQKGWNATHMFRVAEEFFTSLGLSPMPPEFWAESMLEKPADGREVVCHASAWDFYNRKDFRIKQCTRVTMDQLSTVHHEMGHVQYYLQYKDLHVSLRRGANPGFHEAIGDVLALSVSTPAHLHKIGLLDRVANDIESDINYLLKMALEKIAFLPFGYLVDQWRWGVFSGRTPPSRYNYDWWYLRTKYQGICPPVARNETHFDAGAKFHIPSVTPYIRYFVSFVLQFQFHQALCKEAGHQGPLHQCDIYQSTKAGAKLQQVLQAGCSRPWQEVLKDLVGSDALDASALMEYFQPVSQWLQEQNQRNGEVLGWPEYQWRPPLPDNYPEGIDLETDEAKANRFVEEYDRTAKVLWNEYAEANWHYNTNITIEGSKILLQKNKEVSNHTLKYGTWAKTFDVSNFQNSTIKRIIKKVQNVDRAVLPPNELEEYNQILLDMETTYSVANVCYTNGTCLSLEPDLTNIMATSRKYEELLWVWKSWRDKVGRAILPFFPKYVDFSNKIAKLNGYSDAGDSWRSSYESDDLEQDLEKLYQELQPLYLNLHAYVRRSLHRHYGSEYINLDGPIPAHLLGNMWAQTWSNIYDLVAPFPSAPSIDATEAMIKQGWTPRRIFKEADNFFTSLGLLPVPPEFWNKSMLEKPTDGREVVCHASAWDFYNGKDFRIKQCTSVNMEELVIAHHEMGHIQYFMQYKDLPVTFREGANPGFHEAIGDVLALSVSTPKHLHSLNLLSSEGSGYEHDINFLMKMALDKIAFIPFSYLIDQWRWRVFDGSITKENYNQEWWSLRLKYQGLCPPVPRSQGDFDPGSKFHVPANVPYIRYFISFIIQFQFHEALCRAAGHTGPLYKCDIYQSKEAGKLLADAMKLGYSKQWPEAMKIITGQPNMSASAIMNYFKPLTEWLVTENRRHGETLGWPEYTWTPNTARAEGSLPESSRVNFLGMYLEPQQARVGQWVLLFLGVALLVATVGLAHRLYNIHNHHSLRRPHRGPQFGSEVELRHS
Description: inhibition of the pressure increase induced by angiotensin-I in anesthetized normotensive rats. In kind it is in vivo. As to conditions: normotensive rats anesthetized with nembuthal, angiotensin-I 0.1 μg/Kg, generally 15 minutes after test compound. The procedure: The experiment was carried out simultaneously with the above one and under the same conditions.
The basal pressure value for each rat was recorded, then doses of 0.1 μg/Kg of body weight of angiotensin-I were injected through the jugular catheter. […] From these values and the basal ones the pressure increase induced by angiotensin-I in each rat was calculated.
The percentages of inhibition of the pressure increase induced by angiotensin-I by different doses of test compounds were easily calculated and for each dose a single value, averaged on the three animals of the group was considered. By plotting the concentrations of test compound on a logarithmic scale versus the percent inhibitory effects, a linear correlation was established which allowed the calculation of the ED50, i.e. the dose of test compound which inhibits by 50% the pressure increase induced by angiotensin-I.

With `O=C(SC1CCCC1C(=O)N1CCC[C@H]1C(=O)O)c1ccccc1` (single isomer, unassigned) [Example 5B, 1-[(2-benzoylthiocyclopentyl)carbonyl]-L-proline], the IC50 in assay [1] is 662 nM.

Regarding `O=C(O)[C@@H]1CCCN1C(=O)C1CCCC1S` (single isomer, unassigned) [Example 6A, 1-[(2-mercaptocyclopentyl)carbonyl]-L-proline], in assay [1], the IC50 is 863 nM.

Regarding `O=C(O)[C@@H]1CCCN1C(=O)C1CCCC1S` (stereo partly drawn) [Example 2, 1-[(2-mercaptocyclopentyl)carbonyl]-L-proline], in assay [1], the IC50 is 2340 nM. Also, the ED50 in assay [2] (rat, iv, 0.25 h, read-out: ED50 (dose which inhibits by 50% the pressure increase induced by angiotensin-I)) is 2.3 mg/kg.

Turning to `O=C(O)[C@@H]1CCCN1C(=O)C1CCCC1S` (stereo partly drawn) [Example 6B, 1-[(2-mercaptocyclopentyl)carbonyl]-L-proline], the “ED50 (dose which inhibits by 50% the pressure increase induced by angiotensin-I)” value in assay [2] (intravenous, 15 min) worked out at 1.8 mg/kg.
